Experimental findings from patent publication US10525079B2, “Pharmaceutical composition for preventing or treating breast cancer including crystalline polymorph of tetraarsenic hexoxide, and method for producing same” (CHEMAS CO., LTD., priority 2016, dated 2020) are described below.

Assay [1] has as its system human breast cancer cells, MDA-MB-231. As to the kind of experiment: Breast cancer metastasis inhibitory effect in nude mice transplanted with MDA-MB-231. The assay is classed as in vivo, babl/c-nu male nude mice. The settings on record: MDA-MB-231 subcutaneous, oral 4.5 mg/kg for 7 days; for percentage of inhibition of cancer cell metastasis: cancer cells spread to the lungs counted; for spreading of the breast cancer cells to the lungs: versus untreated control. The method, then: The nude mice were allowed free access to food and water, and were bred in a 12-hr light/12-hr dark cycle for 7 days.
The mice were transplanted with human breast cancer cells, MDA-MB-231, through subcutaneous injection, and bred for 7 days. After 7 days, the mice were randomly divided, and then respective mice were orally administered with the compositions of Example 1 and Comparative Example 1 at 4.5 mg/kg for 7 days. Here, the mice treated with nothing after the transplantation of breast cancer cells were used as a control group. After 7 days of administration of the compositions, lung tissues were taken from the mice, and then cancer cells spread to the lungs were counted to compare the degree of inhibition of breast cancer metastasis.

The subject of assay [2] is caspase-3. As to the kind of experiment: RT-PCR mRNA expression of caspase-3 in MCF-7 cells. Format: cell-based, human. As to conditions: 0-15 μM, 24 hours, with increase in concentration. The method, then: (§1) Fetal bovine serum (FBS) and cell culture medium were prepared (Hyclone). RT-PCR Kit and Trizol were obtained from Takara Biotechnology CO., LTD., and Annexin V-FITC was obtained from Shanghai Biyuntian Biological Technology Co., LTD. Primers were designed and synthesized by Beijing Aodingkangsheng Biological Technology Co., LTD.
(§2) Human breast cancer cells MCF-7, as a human cancer cell line, were obtained from the Shanghai Cell Bank of Chinese Academy of Sciences. MCF-7 cells were incubated in Minimum Essential media (MEM) supplemented with 10% FBS, 100 U/ml penicillin, and 100 μg/m streptomycin in a humidified incubator with 5% CO2 and 95% air. The media were exchanged every three days.
(§3) In order to investigate the effect of Example 1 on the induction of cell apoptosis, mRNA expression levels of caspase-3, p21, cyclin E1, and cyclin A2, which are genes involved in cell cycle and apoptosis, were examined by RT-PCR. The cells were dispensed at 1×10^5 cells/well in a 6-well culture dish, and incubated for 24 hours. After 24 hours, the cells contained in the MEM containing 10% FBS were treated with Example 1 at 0, 1, 3, 6, 9, 12 or 15 μM, and incubated for 24 hours. After 24 hours, the cells were collected, and then RNA was extracted using Trizol reagent. […]

Assay [3] concerns cyclin E1. Description: RT-PCR mRNA expression of cyclin E1 in MCF-7 cells. As to conditions: 0-15 μM, 24 hours, with increase in concentration. Format: cell-based, human. On the procedure:
as §1, §2, §3

Assay [4] relates to cyclin A2. As to the kind of experiment: RT-PCR mRNA expression of cyclin A2 in MCF-7 cells. Format: cell-based, human. As to conditions: 0-15 μM, 24 hours, with increase in concentration. On the procedure:
as §1, §2, §3

For assay [5], the system named is p21. As to the kind of experiment: RT-PCR mRNA expression of p21 in MCF-7 cells. As to conditions: 0-15 μM, 24 hours, with increase in concentration. The assay is classed as cell-based, human. The method, then: as §1, §2, §3
Assay [6] relates to metastatic breast cancer. As to the kind of experiment: Clinical test in a patient with metastatic breast cancer (CT images of the lungs). Format: in vivo, human. As to conditions: oral 5 mg three times a day (15 mg/day), after 8, 13, 17 and 22 months of administration. On the procedure:
The following clinical test was conducted using the composition of Example 1.
The patient received hospital treatments and folk remedies since breast cancer was found in 2006, but the breast cancer was metastasized to the lungs, pleura, bones, and liver. In May 2014, pleural effusion and peritoneal fluid collection were found, and thus the pleural effusion was extracted several times. However, due to a severe difficulty in breathing caused by malignant pleural effusion, the patient breathed through an oxygen respiratory system in an emergency room and hospice medical ward. However, the patient began to develop pallor due to a lack of oxygen, and the patient, having about one week left to live, was orally administered with 5 mg of Example 1 three times a day (15 mg/day).
CT images of the patient before the administration of Example 1 and after 8, 13, 17 and 22 months of administration of Example 1 are shown in FIG. 6. Before the administration of Example 1, the airway was closed due to metastasis to the right lung and left lung, but after 8, 13, 17, and 22 months of administration, the sizes of the cancers in both of the lungs were decreased as the duration of administration increased.

Assay [7] has as its system human breast cancer cells SK-BR-3. As to the kind of experiment: Cell proliferation assay (MTT assay), SK-BR-3 cells. Format: cell-based. The method, then: (§4) Fetal bovine serum (FBS) and cell culture medium were prepared (Hyclone), and dimethyl sulfoxide (DMSO) and 3-(4,5-dimetyl-thiazol-2yl)-2,5-diphenyltetrazolium bromide (MTT, Amresco LLC, USC) were prepared.
(§5) As human cancer cell lines, human breast cancer cells MCF-7 and SK-BR-3 were obtained from the Shanghai Cell Bank of Chinese Academy of Sciences. The MCF-7 cells were incubated in Minimum Essential Media (MEM) supplemented with 10% FBS, 100 U/ml penicillin, and 100 μg/ml streptomycin and the SK-BR-3 cells were incubated in Dulbecco's modified Eagle's medium (DMEM) supplemented with 10% FBS, 100 U/ml penicillin, and 100 μg/ml streptomycin in a humidified incubator with 5% CO2 and 95% air. The media were exchanged every three days.
(§6) The effects of Example 1 and Comparative Examples 1 to 3 on cell proliferation were assessed using MTT assay. MTT assay is based on the ability of viable cells against MTT to produce insoluble dark blue formazan products. After the cells were suspended in the medium by trypsin treatment and collected, the cells were dispensed at a density of 4×10^3 cells/well in a 96-well culture dish (Costar, Cambridge, Mass., USA). […] All the crystals were completely dissolved by standing at room temperature for 15 minutes, and the absorbance was measured using a micro-plate reader at a wavelength of 570 nm (A570 nm).
(§7) The absorbance value of the control group treated without the sample was calculated as 100, and the absorbance value of the treatment group treated with the sample, compared with that of the control group, was calibrated, and the percentage of inhibition of cell proliferation was calculated according to the following equation. Percentage (%) of inhibition of cell proliferation=((mean absorbance of control group cells−mean absorbance of treatment group cells)/mean absorbance of control group cells)×100
(§8) All data were expressed as mean±standard error of the mean (mean±SEM). […]
On the technique in general: Formazan colour is commonly taken as a measure of viable cells.

The test system of assay [8] is human breast cancer cells MCF-7. Description: Induction of cell apoptosis by flow cytometry (Annexin V-FITC / PI). Format: cell-based. The settings on record: MCF-7 cells, 0, 1, 3, 6, 9, 12 or 15 μM, 24 hours; with increase in treatment concentration. The method, then:
as §1, §2
The effect of Example 1 on the induction of cell apoptosis was assessed by flow cytometry. The cells were dispensed at 1×10^5 cells/well in a 6-well culture dish, and incubated for 24 hours. After 24 hours, the cells contained in the MEM containing 10% FBS were treated with Example 1 at 0, 1, 3, 6, 9, 12 or 15 μM, and incubated for 24 hours. After 24 hours, the cells were treated using Annexin V-FITC kit to check cell apoptosis, and also treated with propidium iodide (PI) for distinguishment from natural cell death. […] The cells treated with the Annexin V-FITC kit were analyzed for the degree of cell apoptosis by using the BD FACS calibur flow cytometry system. […]
For orientation: A flow cytometer gives signals particle by particle.

For assay [9] the test system is unchanged. Description: Cell proliferation assay (MTT assay), MCF-7 cells. The assay is classed as cell-based. The method, then: as §4, §5, §6, §7, §8
[10] abbreviates: compared with Comparative Example 2 or 3 (Example 1 and Comparative Example 1 mixed at 4:1 or 1:1).

Some results are limits rather than exact numbers.

In the case of `O1[As]2O[As]3O[As]1O[As](O2)O3` [Comparative Example 1, tetraarsenic hexoxide], in assay [1], the “percentage of inhibition of cancer cell metastasis” value is 50% and the “spreading of the breast cancer cells to the lungs” value is “inhibited”.

For the compound tetraarsenic hexoxide [Example 1], the “mRNA expression of caspase-3” value in assay [2] is “increased”. In [3], the “mRNA expression of cyclin E1” value was “increased”. In addition, the “mRNA expression of cyclin A2” value in [4] is “decreased”. The “mRNA expression of p21” value in [5] is “increased”. For the same compound, the “sizes of the cancers in both of the lungs (CT images)” value in assay [6] is on record as “decreased”. The “percentage of inhibition of SK-BR-3 cell proliferation” value in [7] (setting [10]) is “higher”; in assay [7] (incubation 48 hours (FIG. 3A), compared with Comparative Example 1, 0-80 μM), “higher”; in [7] (incubation 72 hours (FIG. 3B), compared with Comparative Example 1, 0-80 μM), “higher”. The “cell apoptosis (annexin V compared with PI)” value in assay [8] was “increased”. Moreover, the “percentage of inhibition of MCF-7 cell proliferation” value in assay [9] (setting [10]) is listed as “higher”; in assay [9] (incubation 48 hours (FIG. 2A), compared with Comparative Example 1, 0-80 μM), “higher”; in assay [9] (incubation 72 hours (FIG. 2B), compared with Comparative Example 1, 0-80 μM) it was “higher”. Further, the “percentage of inhibition of cancer cell metastasis” value in [1] is recorded as no less than 90%. In addition, the “spreading of the breast cancer cells to the lungs” value in assay [1] is “inhibited”.
